Measured values from patent publication US20260226527A1, “METHODS FOR IDENTIFYING HERBICIDAL COMPOUNDS” (SYNGENTA CROP PROTECTION AG, priority 2023, published 2026).

Target: T1, mature Arabidopsis BIO3-BIO1 (SEQ ID NO: 21) (Arabidopsis thaliana, UniProt B0F481)
T1 construct: 6xHis (N); thrombin cleavage site (N); made in house; host or cells: E. coli BL21 (DE3) bioA
T1 sequence (B0F481 with tags, fused parts or gaps): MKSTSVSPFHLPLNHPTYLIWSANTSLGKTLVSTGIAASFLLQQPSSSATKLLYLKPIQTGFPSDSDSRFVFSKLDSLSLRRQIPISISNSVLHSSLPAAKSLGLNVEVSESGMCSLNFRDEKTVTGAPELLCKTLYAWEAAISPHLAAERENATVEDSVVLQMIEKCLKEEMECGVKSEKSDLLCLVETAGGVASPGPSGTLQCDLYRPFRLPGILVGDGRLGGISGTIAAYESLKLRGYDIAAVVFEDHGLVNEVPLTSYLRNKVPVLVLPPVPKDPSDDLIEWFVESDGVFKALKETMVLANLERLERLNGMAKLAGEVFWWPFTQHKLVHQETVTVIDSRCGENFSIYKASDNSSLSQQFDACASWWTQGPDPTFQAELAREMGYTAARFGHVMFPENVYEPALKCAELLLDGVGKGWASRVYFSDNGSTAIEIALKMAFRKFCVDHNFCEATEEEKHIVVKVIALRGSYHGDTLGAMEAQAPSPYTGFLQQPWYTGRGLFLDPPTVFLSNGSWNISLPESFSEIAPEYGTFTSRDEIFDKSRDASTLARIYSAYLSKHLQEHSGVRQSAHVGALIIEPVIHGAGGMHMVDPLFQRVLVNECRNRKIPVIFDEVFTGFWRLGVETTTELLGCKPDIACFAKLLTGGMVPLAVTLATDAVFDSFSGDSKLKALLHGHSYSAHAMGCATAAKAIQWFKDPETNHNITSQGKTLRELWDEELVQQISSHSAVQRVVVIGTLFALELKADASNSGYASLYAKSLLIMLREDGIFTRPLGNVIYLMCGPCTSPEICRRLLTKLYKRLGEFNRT
Test: DAPA-AT assay with spermidine as amine donor, fluorescent detection of DAPA:o-phthalaldehyde
Type: biochemical
Conditions: 10 μM spermidine, 1 μM KAPA, 60 minutes at 20° C.; for inhibition at 0.2 µM: inhibitor concentration 0.2 μM; for inhibition at 1 µM: inhibitor concentration 1 μM; for inhibition at 5 µM: inhibitor concentration 5 μM; for inhibition at 20 µM: inhibitor concentration 20 μM; for inhibition at 100 µM: inhibitor concentration 100 μM
Procedure: A pET-24 plasmid containing a DNA sequence encoding BIO3-BIO1 derived from Arabidopsis thaliana, codon-optimised for expression in E. coli, with the predicted N-terminal mitochondrial transit peptide removed and with an N-terminal 6×His-tag and thrombin cleavage site and under control of a T7 promoter (SEQ ID NO:38), was synthesised by Twist Bioscience. The plasmid was expressed in E. coli BL21 (DE3) bioA with 50 μg/mL kanamycin and 25 μg/mL chloramphenicol selection. Overnight cultures grown at 37° C. were used to inoculate 8×500 mL AIM in shake flasks at a ratio of 1:100. Cultures were grown at 37° C., 200 rpm for 3.5 hours and then overnight at 20° C. Cells were harvested by centrifugation for 30 minutes at 10 000 g. Cells were stored at −80° C. until extraction. 30 g of cell pellet from was thawed in 120 mL of IMAC buffer A (20 mM HEPES pH7.5, 25 mM imidazole, 500 mM sodium chloride, 0.15 mM pyridoxal phosphate, 0.5 mM TCEP, 1×complete Protease Inhibitor Tablet (Roche)). The resuspension was passed through a cell disrupter at 18 000 PSI and centrifuged at 50 000 g for 25 minutes at 4° C. The His-tagged BIO3-BIO1 protein was purified from the extract supernatant on an ÄKTA avant chromatography system (Cytiva) using a HisTrap FF column and eluted in IMAC buffer B ((20 mM HEPES pH7.5, 500 mM imidazole, 500 mM sodium chloride, 0.15 mM pyridoxal phosphate, 0.5 mM TCEP) followed by SEC using a HiLoad 26/60 Superdex200 column in SEC buffer (25 mM HEPES pH7.5, 150 mM sodium chloride, 0.15 mM pyridoxal phosphate, 0.5 mM TCEP). Protein concentration was measured and calculated using the absorbance at 280 nm. Extracts were diluted 1 in 4 and 10 uL was analysed by SDS PAGE.
To measure DAPA-AT enzyme activity in the presence of herbicide (candidate compound), 0.5 μL of the herbicide was incubated with 20 μL of enzyme mix (100 mM EPPS pH 8.6, 0.1 mM pyridoxal phosphate, 0.1 mg/mL BSA, 25 nM BIO3-BIO1 enzyme) for 10 minutes at 20° C. in a well of a 384-well black plate, followed by the addition of 20 μL of substrate mix (final concentration of 100 mM EPPS pH 8.6, 0.1 mM pyridoxal phosphate, 0.1 mg/mL BSA, 10 μM spermidine, 1 μM KAPA, 100 mM NaHCO3) and further incubation for 60 minutes at 20° C. The reaction was terminated by the addition of 50 μL of derivatisation mix consisting of 185 mM borate NaOH pH 9.4, 3 mM o-phthalaldehyde, 6 mM β-mercaptoethanol, 22.5% (v/v) ethanol, 3% (v/v) methanol. The fluorescent product produced by the reaction of DAPA with o-phthalaldehyde and β-mercaptoethanol was measured at 470 nm after excitation at 410 nm. The percentage inhibition was calculated using the equation, % inhibition=100×((((MAX−MIN)−(X−MIN))/(MAX−MIN))), where MIN and MAX are the average of the minimum reaction and maximum reaction controls and X is the test sample. Compounds are typically added directly to the assay plate in a serial 3× dilution from a top final concentration of 100 μM over 10 different concentrations. The percent inhibition values are fitted to a dose-response using the equation Y=Bottom+(Top−Bottom)/(1+((X^Hill Slope)/(IC50^Hill Slope))) to calculate the compound concentration that gives 50% inhibition (IC50).

`CCn1c(C)c(-c2cc(OC(F)(F)F)ccc2Cl)c(=O)c(C(=O)O)c1-c1ccc(Cl)c(Cl)c1` [Compound D, 5-[2-chloro-5-(trifluoromethoxy)phenyl]-2-(3,4-dichlorophenyl)-1-ethyl-6-methyl-4-oxo-pyridine-3-carboxylic acid] showed an inhibition at 0.2 µM of 51%, an inhibition at 1 µM of 84% and an inhibition at 5 µM of 95%.

`C[C@@H](N)COc1cccc(C(=O)O)n1` [Compound E, [(1R)-2-(6-carboxypyridin-1-ium-2-yl)oxy-1-methyl-ethyl]ammonium; dichloride] was tested, and the inhibition at 20 µM was 80% and the inhibition at 100 µM was 94%.

Molecule `CC(O)C(N)CCCCC(=O)O` (centres unmarked) [Compound B, [5-carboxy-1-(1-hydroxyethyl)pentyl]ammonium; chloride] has an inhibition at 20 µM of 84% and an inhibition at 100 µM of 95%.

`CCn1c(Cn2ccc(C(F)(F)F)n2)cc(=O)c(C(=O)O)c1-c1ccc(Cl)c(Cl)c1` [Compound L, 2-(3,4-dichlorophenyl)-1-ethyl-4-oxo-6-[[3-(trifluoromethyl)pyrazol-1-yl]methyl]pyridine-3-carboxylic acid] showed an inhibition at 0.2 µM of 6%, an inhibition at 1 µM of 44% and an inhibition at 5 µM of 83%.

With `CCn1c(C)c(-c2ccc(F)cc2F)c(=O)c(C(=O)O)c1-c1ccc(Cl)c(Cl)c1` [Compound C, 2-(3,4-dichlorophenyl)-5-(2,4-difluorophenyl)-1-ethyl-6-methyl-4-oxo-pyridine-3-carboxylic acid] the inhibition at 0.2 µM was 29%, the inhibition at 1 µM was 64% and the inhibition at 5 µM was 85%.

For `CCOC(=O)c1nn(-c2ccc3c(c2)OC(F)(F)C(F)(F)O3)c2cccc(C(C)=O)c2c1=O` [Compound A, ethyl 5-acetyl-4-oxo-1-(2,2,3,3-tetrafluoro-1,4-benzodioxin-6-yl)cinnoline-3-carboxylate], the inhibition at 1 µM was 59% and the inhibition at 5 µM was 84%.

With `CCn1c(-c2ccc(Cl)c(Cl)c2)c(C(=O)O)c(=O)c2cc(F)ccc21` [Compound M, 2-(3,4-dichlorophenyl)-1-ethyl-6-fluoro-4-oxo-quinoline-3-carboxylic acid] the inhibition at 1 µM was 58% and the inhibition at 5 µM was 82%.
